From patent US6743413B1, “Suspension aerosol formulations” (3M Company, priority 1991, dated 2004)
Where “and” joins values, the source holds several entries; their conditions need not be identical. Equal values may be shown once.

Experiments:
Type in all cases: physicochemical
[1] = Visual observation of suspension aerosol formulations (dispersion, flocculation, settling, creaming, suitability for metered dose inhaler); settings: for homogeneity of suspension: Example 1: 1.6 percent in HFC 134a
Procedure: (§1) For each of the micronized drug substances A-G set forth below, formulations were prepared at drug concentrations of 0.017 percent, 0.039 percent, 0.083 percent, 0.41 percent, and 1.6 percent by weight based on the total weight of the formulation (corresponding to 0.20 mg/mL, 0.50 mg/mL, 1.0 mg/mL, 5.0 mg/Ml, and 20 mg/mL, respectively). The formulations were prepared by dispersing micronized drug in HFC 134a in a sealed 15 mL clear PET vial using ultrasonic energy.
For each propellant mix the range of drug concentrations used in Example 1 was used.
BDP formulations were prepared at 0.070 percent by weight (1.0 mg/mL) in HFC 227 and at 0.38 percent by weight (5.0 mg/mL) in a 1:1 mixture of HFC 227 and HFC 134a.
Formulations of salmeterol free base at 0.02 percent by weight and 0.05 percent by weight were prepared in HFC 134a and in HFC 227 by placing the drug and 5 mL of glass beads into a 15 mL glass vial, crimping on a continuous valve, and adding the appropriate amount of propellant. The formulations were shaken on a paint shaker for 10 min in order to disperse the drug.
The vial was then shaken on a paint shaker, chilled, and the contents transferred to 10 mL vials fitted with the metered dose valve. […] Valve delivery was measured through the life of the formulations.

[2] = Visual assessment of suspension formulations by time lapse photography 10 and 30 seconds after agitation; design: key: + = visually acceptable formulation; − = visually unacceptable formulation; ? = border line acceptable formulation
Procedure: as §1
Using time lapse photography 10 and 30 seconds after agitation the formulations were assessed as follows: […]
The formulations were photographed using time lapse photography at 10 and 30 seconds post agitation and were assessed as follows: […]

[3] = Respirable fraction (Anderson Cascade Impactor)
Procedure: In this assay the respirable fraction (the percent by weight of particles having an aerodynamic particle size of less than 4.7 microns) of the aerosol suspension is determined using an Anderson Cascade Impactor (available from Anderson Sampler Inc,; Atlanta, Ga.).
The aerosol vial to be tested is primed five times. The valve and valve stem are then cleaned with methanol and dried with compressed air. The aerosol vial and a clean, dry actuator are coupled to the glass throat attached to the top of the impactor using an appropriate firing adaptor. The calibrated vacuum pump (28.3 L/min) attached to the cascade impactor is turned on. A total of 20 sprays is delivered into the cascade impactor by repeatedly shaking the vial, seating it in the actuator and immediately delivering a single spray. The time between sprays is approximately 30 seconds. The cascade impactor is disassembled and each component is rinsed separately with diluent (55 parts methanol mixed with 45 parts of 0.1 percent aqueous phosphoric acid, v/v). Each solution is analyzed for pirbuterol acetate content using high performance liquid chromatography. The respirable fraction is calculated as follows:
% respirable=drug recovered from plates 3-7×100 total drug−drug recovered from recovered actuator and valve
In Examples 13-14 below respirable fraction is determined using the test method described above but using a diluent of 45 parts by volume methanol and 55 parts by volume of 0.1 percent aqueous phosphoric acid.

[4] = Example 1: drug concentration 0.017 % in HFC 134a alone
[5] = Example 1: drug concentration 0.039 % in HFC 134a alone
[6] = Example 1: drug concentration 0.083 % in HFC 134a alone
[7] = Example 1: drug concentration 0.41 % in HFC 134a alone
[8] = Example 1: drug concentration 1.63 % in HFC 134a alone
[9] = Example 4: 0.070 percent in HFC 227
[10] = Example 4: 0.38 percent in 1:1 HFC 134a/HFC 227
[11] = Example 5: 0.02 and 0.05 percent by weight in HFC 134a and in HFC 227

Row | Compound | homogeneity of suspension [1] | visual assessment of formulation [2, 4] | visual assessment of formulation [2, 5] | visual assessment of formulation [2, 6] | visual assessment of formulation [2, 7] | visual assessment of formulation [2, 8] | other results
1 | CC(C)(C)NCC(O)c1ccc(O)c(CO)c1 (stereo not drawn) [Albuterol] | particularly homogenous suspensions | + | + | ? | − | + | 
2 | CCC(=O)OCC(=O)[C@@]1(OC(=O)CC)[C@@H](C)C[C@H]2[C@@H]3CCC4=CC(=O)C=C[C@]4(C)[C@@]3(Cl)[C@@H](O)C[C@@]21C [Beclomethasone dipropionate] | particularly homogenous suspensions | + | + | ? | − | + | dispersion [1, 9]: fairly well dispersed; time of flocculation after shaking [1, 9]: about 10 seconds; flocculation [1, 10]: flocculation was rapid; settling or creaming of flocs [1, 10]: the flocs neither settled nor creamed
3 | O=C([O-])c1cc(=O)c2c(OCC(O)COc3cccc4oc(C(=O)[O-])cc(=O)c34)cccc2o1.[Na+].[Na+] [Disodium cromoglycate] |  | + | + | ? | − | − | homogeneity of formulation ([1]; Example 2: 0.015, 0.035 and 0.070 percent by weight in HFC 227, no surfactant): particularly homogenous; flocculation and sedimentation ([1]; Example 2: 0.35 percent and 1.4 percent in HFC 227, no surfactant): more rapid flocculation and sedimentation
4 | OCc1cc(C(O)CNCCCCCCOCCCCc2ccccc2)ccc1O (stereo not drawn) [salmeterol free base, salmeterol] |  |  |  |  |  |  | creaming [1, 11]: cream in both propellants, more so in HFC 227 than in HFC 134a; flocculation [1, 11]: Flocculation was also apparent; suitability for metered dose inhaler [1, 11]: deemed suitable for use in connection with a metered dose inhaler
5 | Albuterol sulfate |  | + | + | + | − | − | respirable fraction (aerodynamic particle size less than 4.7 microns) ([3]; Example 13: 0.4 percent by weight albuterol sulfate in HFC 227, duplicate, two vials): 69.3% and 60.6% and 64.0% and 63.0%; respirable fraction (aerodynamic particle size less than 4.7 microns) ([3]; Example 14: 0.40 percent albuterol sulfate, 0.50 percent oleic acid, 15.0 percent ethanol, HFC 227, duplicate, two vials): 28.0% and 22.0% and 27.1% and 28.8%; homogeneity of formulation ([1]; Comparative Example: CFC propellant mixes A and B (Propellants 11/114/12), no surfactant, 0.20, 0.50 and 1.0 mg/mL): acceptably homogenous; caking of drug on container walls ([1]; Comparative Example: CFC propellant mixes A and B versus HFC 134a counterparts of Example 1): more caking of drug on the walls of the container than their HFC 134a counterparts; flocculation ([1]; Comparative Example: CFC propellant mixes A and B, no surfactant, 5.0 and 20 mg/mL): relatively rapid flocculation; suitability for metered dose inhaler ([1]; Example 15: 0.37 percent albuterol sulfate, 0.10 percent sorbitan trioleate, 9.95 percent ethanol, 89.58 percent HFC 227): deemed to be suitable for use in connection with a metered dose inhaler
6 | Pirbuterol acetate |  | + | + | ? | ? | + | respirable fraction (aerodynamic particle size less than 4.7 microns) ([3]; Example 11: 0.9 percent by weight pirbuterol acetate in HFC 227, duplicate, two vials): 59.1% and 54.8% and 53.9% and 49.3%; respirable fraction (aerodynamic particle size less than 4.7 microns) ([3]; Example 12: 0.9 percent pirbuterol acetate, 10 percent ethanol, HFC 227, duplicate, two vials): 34.9% and 32.5% and 31.7% and 31.3%; respirable fraction (aerodynamic particle size less than 4.7 microns) ([3]; Example 16: 0.9 percent pirbuterol acetate, 3 percent ethanol, HFC 227, two separate vials): 59.8% and 52.8%; respirable fraction (aerodynamic particle size less than 4.7 microns) ([3]; Example 17: 0.9 percent pirbuterol acetate, 5 percent ethanol, HFC 227, two separate vials): 48.2% and 43.5%; suitability for metered dose inhaler ([1]; Example 9: 0.9 percent by weight pirbuterol acetate in HFC 227): deemed to be suitable for use in connection with a metered dose inhaler; suitability for metered dose inhaler ([1]; Example 10: 0.90 percent pirbuterol acetate, 0.23 percent oleic acid, 10.0 percent ethanol, HFC 227): deemed to be suitable for use in connection with a metered dose inhaler
